In data set [1] the test system is rat brain. The experiment in a line: Contrast enhanced T1-weighted MRI after photo-induced thrombotic stroke, relative BBB dysfunction volume. Format: in vivo. The following applies: 48 h following photothrombosis; osmotic pumps i.p.; memantine 40 mg/kg, losartan 60 mg/kg; mean±SEM.
Data set [2] deals with exposed rat cortex. The experiment in a line: Seizure (4AP)-induced BBB dysfunction, fluorescent angiography permeability index. It is filed as in vivo, Sprague-Dawley rats. The following applies: 4AP-induced seizures (SE), NaFlu tracer, mean±SEM.
Data set [3] relates to rat brain. The experiment in a line: T2-weighted MRI after photo-induced thrombotic stroke, relative lesion volume. Format: in vivo. To be noted: 48 h following photothrombosis; osmotic pumps i.p.; memantine 40 mg/kg, losartan 60 mg/kg; mean±SEM.
Data set [4] concerns exposed rat cortex. The experiment in a line: Agonist-induced vascular permeability to NaFlu, agonists added to ACSF with neuronal activity blocked. Format: in vivo, Sprague-Dawley rats. The following applies: neuronal activity and synaptic transmission blocked, mean±SEM.
The mark [5] stands for this setting: 30 min after adding the agonist to ACSF.
Setting [6] is: 10 min after adding the agonist to ACSF.

On to `CC12CC3CC(C)(C1)CC(N)(C3)C2` [memantine, 3,5-dimethyladamantan-1-amine], for which, in data set [1], the “relative BBB dysfunction volume (100*# BBBD voxels/# brain voxels)” value is 15.03±1.83%. The “shift in PI (BBB permeability index) from baseline” value came out at 3.14±3.1% in data set [2] (10 min from seizure onset) and 20.86±3.78% in data set [2] (30 min from seizure onset). Also, the “relative lesion volume (100*# lesion voxels/# brain voxels)” value in data set [3] was determined as 24.18±3.75%.

As for “TGF-β1: transforming growth factor beta 1, 10 ng/ml added to the ACSF”, the “shift in vascular permeability to NaFlu (PI shift from pre-substance application)” value (from here on “shift in vascular permeability to NaFlu”) in data set [4] (setting [5]) is 15.3±7.62%.

As to “angiotensin II (DRVYIHPF; Angiotensin-2; UniProt P01019 25-32, looked up) [ATII, angiotensin II, agonist added to the ACSF, 70 μM]”, the “shift in vascular permeability to NaFlu” value is on record as −4.11±3.35% in data set [4] (setting [6]) and −12.33±3.45% in data set [4] (setting [5]).

`N[C@H](CCCP(=O)(O)O)C(=O)O` [AP5, D-(−)-2-amino-5-phosphonopentanoic acid]: the “shift in PI (BBB permeability index) from baseline” value in data set [2] (10 min from seizure onset) was −1.19±4.71%; in data set [2] (30 min from seizure onset) it was 18.78±6.93%.

For the compound “bovine-serum albumin: bovine serum albumin, 0.2 mM added to the ACSF”, the “shift in vascular permeability to NaFlu” value in data set [4] (setting [6]) is recorded as −2.55±4.6%; in data set [4] (setting [5]), −0.33±8.36%.

These data come from US20220133650A1, “COMBINATION THERAPY FOR TREATMENT OF BRAIN DISORDERS” (B. G. NEGEV TECHNOLOGIES AND APPLICATIONS LTD., AT …, priority 2019, published 2022).
